# Tests used:
# bacteria = conditions: cited from earlier work
# mildew = assay: Amount of biocide necessary to inhibit fungi growth, mildew (FIG. 2); type: cell-based
# Experimental: (§1) The amount of ZnPT and copper-containing glass necessary to inhibit fungi growth was evaluated.
# algae = conditions: in combination with Cu; cited from earlier work
# mold = assay: Amount of biocide necessary to inhibit fungi growth, mold (FIG. 1); type: cell-based
# Experimental: as §1
# fungi = conditions: alone
# marine organisms = conditions: cited from earlier work
compound,measurement,setting,value
"N#Cc1c(-c2ccc(Cl)cc2)[nH]c(C(F)(F)F)c1Br [Tralopyril, 4-bromo-2-(4-chlorophenyl)-5-(trifluoromethyl)-1H-pyrrole-3-carbonitrile]",activity against bacteria,bacteria,not sufficient
Zinc pyrithione [ZnPT],amount needed to reduce mildew growth,mildew,100 g/gallon
same,"algaecide activity, concentration range",algae,1-100 ppm (μg/L)
same,amount needed to reduce mold growth,mold,10 g/gallon
same,inhibition of fungi,fungi,no inhibition of fungi
[O-][n+]1ccccc1[S][Cu][S]c1cccc[n+]1[O-] [CuPT],toxicity to marine organisms,marine organisms,more toxic than ZnPT

# — patent publication US10314313B2, “Antimicrobial materials exhibiting synergistic efficacy” (CORNING INCORPORATED, priority 2015, dated 2019)
